According to the NIST ThermoML archive (doi:10.1016/j.jct.2017.08.004):
Numbers after ± are expanded uncertainties.

Experiment: molar heat capacity at constant pressure
Conditions: 101.33 kPa

OC[C@@H](O)[C@@H](O)CO [meso-1,2,3,4-butanetetrol]
molar heat capacity at constant pressure [J/K/mol]
Conditions | Small sample (50 mg) DSC | relaxation calorimetry
264.15 K, Crystal | 146.16 ± 18 | –
265.15 K, Crystal | 146.7 ± 18 | –
266.15 K, Crystal | 147.21 ± 18 | –
267.15 K, Crystal | 147.61 ± 18 | –
268.15 K, Crystal | 148.1 ± 18 | –
269.15 K, Crystal | 148.57 ± 18 | –
270 K, Crystal | – | 150.4 ± 9.2
270.15 K, Crystal | 149.15 ± 18 | –
271.15 K, Crystal | 149.59 ± 18 | –
272.15 K, Crystal | 150.19 ± 18 | –
272.18 K, Crystal | – | 151.4 ± 6.2
273.15 K, Crystal | 150.91 ± 18 | 152 ± 9.3
274.15 K, Crystal | 151.33 ± 18 | –
275.15 K, Crystal | 151.84 ± 18 | –
276.15 K, Crystal | 152.44 ± 18 | –
277.15 K, Crystal | 152.94 ± 18 | –
278.15 K, Crystal | 153.58 ± 19 | –
279.15 K, Crystal | 154.21 ± 19 | –
280 K, Crystal | – | 155.49 ± 9.5
280.15 K, Crystal | 154.62 ± 19 | –
281.15 K, Crystal | 155.17 ± 19 | –
282.15 K, Crystal | 155.77 ± 19 | –
282.18 K, Crystal | – | 157.05 ± 6.4
283.15 K, Crystal | 156.24 ± 19 | –
284.15 K, Crystal | 156.55 ± 19 | –
285.15 K, Crystal | 157.21 ± 19 | –
286.15 K, Crystal | 157.62 ± 19 | –
287.15 K, Crystal | 158.1 ± 19 | –
288.15 K, Crystal | 158.65 ± 19 | –
289.15 K, Crystal | 159.25 ± 19 | –
290 K, Crystal | – | 160.61 ± 9.8
290.15 K, Crystal | 159.93 ± 19 | –
291.15 K, Crystal | 160.48 ± 19 | –
292.15 K, Crystal | 161.05 ± 19 | –
292.3 K, Crystal | – | 161.64 ± 6.6
293.15 K, Crystal | 161.72 ± 20 | –
294.15 K, Crystal | 162.21 ± 20 | –
295.15 K, Crystal | 162.81 ± 20 | –
296.15 K, Crystal | 163.64 ± 20 | –
297.15 K, Crystal | 164.09 ± 20 | –
298.15 K, Crystal | 164.59 ± 20 | 164.8 ± 10
299.15 K, Crystal | 165.2 ± 20 | –
300 K, Crystal | – | 165.76 ± 10
300.15 K, Crystal | 165.82 ± 20 | –
301.15 K, Crystal | 166.37 ± 20 | –
302.15 K, Crystal | 166.97 ± 20 | –
302.36 K, Crystal | – | 167.01 ± 6.8
303.15 K, Crystal | 167.71 ± 20 | –
304.15 K, Crystal | 168.28 ± 20 | –
305 K, Crystal | 169.01 ± 20 | –
305.15 K, Crystal | 169.01 ± 20 | –
306.15 K, Crystal | 169.71 ± 21 | –
307.15 K, Crystal | 170.39 ± 21 | –
308.15 K, Crystal | 171.17 ± 21 | –
309.15 K, Crystal | 171.87 ± 21 | –
310 K, Crystal | 172.33 ± 21 | –
310.15 K, Crystal | 172.47 ± 21 | –
311.15 K, Crystal | 173.14 ± 21 | –
312.15 K, Crystal | 173.77 ± 21 | –
313.15 K, Crystal | 174.6 ± 21 | –
314.15 K, Crystal | 175.09 ± 21 | –
315 K, Crystal | 175.5 ± 21 | –
315.15 K, Crystal | 175.58 ± 21 | –
316.15 K, Crystal | 176.2 ± 21 | –
317.15 K, Crystal | 176.88 ± 21 | –
318.15 K, Crystal | 177.32 ± 21 | –
319.15 K, Crystal | 177.89 ± 21 | –
320 K, Crystal | 178.54 ± 22 | –
320.15 K, Crystal | 178.54 ± 22 | –
321.15 K, Crystal | 179.14 ± 22 | –
322.15 K, Crystal | 179.7 ± 22 | –
323.15 K, Crystal | 180.24 ± 22 | –
324.15 K, Crystal | 180.85 ± 22 | –
325 K, Crystal | 181.48 ± 22 | –
325.15 K, Crystal | 181.48 ± 22 | –
326.15 K, Crystal | 181.97 ± 22 | –
327.15 K, Crystal | 182.72 ± 22 | –
328.15 K, Crystal | 183.34 ± 22 | –
329.15 K, Crystal | 183.85 ± 22 | –
330 K, Crystal | 184.34 ± 22 | –
330.15 K, Crystal | 184.59 ± 22 | –
331.15 K, Crystal | 185.18 ± 22 | –
332.15 K, Crystal | 185.74 ± 22 | –
333.15 K, Crystal | 186.31 ± 23 | –
334.15 K, Crystal | 186.85 ± 23 | –
335 K, Crystal | 187.15 ± 23 | –
335.15 K, Crystal | 187.33 ± 23 | –
336.15 K, Crystal | 187.85 ± 23 | –
337.15 K, Crystal | 188.31 ± 23 | –
338.15 K, Crystal | 188.9 ± 23 | –
339.15 K, Crystal | 189.49 ± 23 | –
340 K, Crystal | 189.91 ± 23 | –
340.15 K, Crystal | 189.94 ± 23 | –
341.15 K, Crystal | 190.43 ± 23 | –
342.15 K, Crystal | 191.01 ± 23 | –
343.15 K, Crystal | 191.56 ± 23 | –
344.15 K, Crystal | 192.16 ± 23 | –
345 K, Crystal | 192.66 ± 23 | –
345.15 K, Crystal | 192.67 ± 23 | –
346.15 K, Crystal | 193.32 ± 23 | –
347.15 K, Crystal | 193.86 ± 23 | –
348.15 K, Crystal | 194.17 ± 23 | –
349.15 K, Crystal | 194.83 ± 24 | –
350 K, Crystal | 195.43 ± 24 | –
350.15 K, Crystal | 195.3 ± 24 | –
351.15 K, Crystal | 195.72 ± 24 | –
352.15 K, Crystal | 196.34 ± 24 | –
353.15 K, Crystal | 197.73 ± 24 | –
354.15 K, Crystal | 198.08 ± 24 | –
355 K, Crystal | 198.22 ± 24 | –
355.15 K, Crystal | 198.55 ± 24 | –
356.15 K, Crystal | 199.02 ± 24 | –
357.15 K, Crystal | 199.53 ± 24 | –
358.15 K, Crystal | 200.16 ± 24 | –
359.15 K, Crystal | 200.7 ± 24 | –
360 K, Crystal | 201.07 ± 24 | –
360.15 K, Crystal | 201.23 ± 24 | –
361.15 K, Crystal | 201.82 ± 24 | –
362.15 K, Crystal | 202.33 ± 24 | –
363.15 K, Crystal | 202.72 ± 24 | –
364.15 K, Crystal | 203.4 ± 25 | –
365 K, Crystal | 203.99 ± 25 | –
365.15 K, Crystal | 203.96 ± 25 | –
366.15 K, Crystal | 204.56 ± 25 | –
367.15 K, Crystal | 205.27 ± 25 | –
368.15 K, Crystal | 205.84 ± 25 | –
369.15 K, Crystal | 206.45 ± 25 | –
370 K, Crystal | 207.02 ± 25 | –
370.15 K, Crystal | 207.1 ± 25 | –
371.15 K, Crystal | 207.59 ± 25 | –
372.15 K, Crystal | 208.24 ± 25 | –
373.15 K, Crystal | 208.9 ± 25 | –
374.15 K, Crystal | 209.47 ± 25 | –
375 K, Crystal | 210.16 ± 25 | –
375.15 K, Crystal | 210.03 ± 25 | –
412.05 K, Liquid | 355.49 ± 43 | –
412.15 K, Liquid | 355.53 ± 43 | –
412.25 K, Liquid | 355.65 ± 43 | –
412.35 K, Liquid | 355.53 ± 43 | –
412.45 K, Liquid | 355.34 ± 43 | –
412.55 K, Liquid | 355.36 ± 43 | –
412.65 K, Liquid | 355.43 ± 43 | –
412.75 K, Liquid | 355.39 ± 43 | –
412.85 K, Liquid | 355.48 ± 43 | –
412.95 K, Liquid | 355.36 ± 43 | –
413.05 K, Liquid | 355.34 ± 43 | –
413.15 K, Liquid | 355.22 ± 43 | –
414.15 K, Liquid | 354.92 ± 43 | –
415 K, Liquid | 354.91 ± 43 | –
415.15 K, Liquid | 354.76 ± 43 | –
416.15 K, Liquid | 354.79 ± 43 | –
417.15 K, Liquid | 354.7 ± 43 | –
418.15 K, Liquid | 354.67 ± 43 | –
419.15 K, Liquid | 354.7 ± 43 | –
420 K, Liquid | 354.96 ± 43 | –
420.15 K, Liquid | 354.81 ± 43 | –
421.15 K, Liquid | 354.98 ± 43 | –
422.15 K, Liquid | 354.99 ± 43 | –
423.15 K, Liquid | 354.99 ± 43 | –
424.15 K, Liquid | 354.94 ± 43 | –
425 K, Liquid | 355.01 ± 43 | –
425.15 K, Liquid | 354.94 ± 43 | –
426.15 K, Liquid | 354.95 ± 43 | –
427.15 K, Liquid | 355.23 ± 43 | –
428.15 K, Liquid | 355.21 ± 43 | –
429.15 K, Liquid | 355.15 ± 43 | –
430 K, Liquid | 355.06 ± 43 | –
430.15 K, Liquid | 355.18 ± 43 | –
431.15 K, Liquid | 355.17 ± 43 | –
432.15 K, Liquid | 355.17 ± 43 | –
433.15 K, Liquid | 355 ± 43 | –
434.15 K, Liquid | 354.85 ± 43 | –
435 K, Liquid | 355.11 ± 43 | –
435.15 K, Liquid | 355.19 ± 43 | –
